# Measured values from patent US9416115B2, “Fused heterocyclic compounds as ion channel modulators” (Gilead Sciences, Inc., priority 2013, dated 2016).
# What was measured:
# [1] = target: hNav1.1 (SCN1A) (Homo sapiens, UniProt P35498); test: Use-dependent inhibition of the CNS Nav1.1 sodium channel; assay type: cell-based; conditions: use-dependent block, 25 Hz, pulse 20, read-out: Nav1.1 UDB 25 Hz 10 uM
# Outline: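 HEK-293 cells stably expressing WT hNav1.1, automated whole-cell patch clamp at 23-25 °C with CsF-based internal and NaCl external solutions, pH 7.35. Compound applied twice, 200 s equilibration; block measured at pulse 20 of a 25 Hz train (0 mV, 20 ms) from −120 mV, as mean % inhibition versus compound-free.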
# [2] = target: T1, hNaV1.2 (SCN2A) (Homo sapiens, UniProt Q99250); test: Use-dependent inhibition of the CNS Nav1.2 sodium channel; assay type: cell-based; conditions: use-dependent block, 25 Hz, pulse 20, read-out: Nav1.2 UDB 25 Hz 10 uM
# T1 construct: expressed in transfected cells
# Outline: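 Use-dependent block of human Nav1.2 was measured by automated whole-cell patch clamp (QPatch) in HEK-293 cells stably expressing hNaV1.2 with SCN1B and SCN2B. From a holding potential of −120 mV, a train of 20 pulses to 0 mV (20 ms, 25 Hz) was applied. Peak current at pulse 20 was normalized to the first pulse, and percent inhibition was calculated relative to compound-free recordings.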
# T1 sequence (Q99250 whole entry): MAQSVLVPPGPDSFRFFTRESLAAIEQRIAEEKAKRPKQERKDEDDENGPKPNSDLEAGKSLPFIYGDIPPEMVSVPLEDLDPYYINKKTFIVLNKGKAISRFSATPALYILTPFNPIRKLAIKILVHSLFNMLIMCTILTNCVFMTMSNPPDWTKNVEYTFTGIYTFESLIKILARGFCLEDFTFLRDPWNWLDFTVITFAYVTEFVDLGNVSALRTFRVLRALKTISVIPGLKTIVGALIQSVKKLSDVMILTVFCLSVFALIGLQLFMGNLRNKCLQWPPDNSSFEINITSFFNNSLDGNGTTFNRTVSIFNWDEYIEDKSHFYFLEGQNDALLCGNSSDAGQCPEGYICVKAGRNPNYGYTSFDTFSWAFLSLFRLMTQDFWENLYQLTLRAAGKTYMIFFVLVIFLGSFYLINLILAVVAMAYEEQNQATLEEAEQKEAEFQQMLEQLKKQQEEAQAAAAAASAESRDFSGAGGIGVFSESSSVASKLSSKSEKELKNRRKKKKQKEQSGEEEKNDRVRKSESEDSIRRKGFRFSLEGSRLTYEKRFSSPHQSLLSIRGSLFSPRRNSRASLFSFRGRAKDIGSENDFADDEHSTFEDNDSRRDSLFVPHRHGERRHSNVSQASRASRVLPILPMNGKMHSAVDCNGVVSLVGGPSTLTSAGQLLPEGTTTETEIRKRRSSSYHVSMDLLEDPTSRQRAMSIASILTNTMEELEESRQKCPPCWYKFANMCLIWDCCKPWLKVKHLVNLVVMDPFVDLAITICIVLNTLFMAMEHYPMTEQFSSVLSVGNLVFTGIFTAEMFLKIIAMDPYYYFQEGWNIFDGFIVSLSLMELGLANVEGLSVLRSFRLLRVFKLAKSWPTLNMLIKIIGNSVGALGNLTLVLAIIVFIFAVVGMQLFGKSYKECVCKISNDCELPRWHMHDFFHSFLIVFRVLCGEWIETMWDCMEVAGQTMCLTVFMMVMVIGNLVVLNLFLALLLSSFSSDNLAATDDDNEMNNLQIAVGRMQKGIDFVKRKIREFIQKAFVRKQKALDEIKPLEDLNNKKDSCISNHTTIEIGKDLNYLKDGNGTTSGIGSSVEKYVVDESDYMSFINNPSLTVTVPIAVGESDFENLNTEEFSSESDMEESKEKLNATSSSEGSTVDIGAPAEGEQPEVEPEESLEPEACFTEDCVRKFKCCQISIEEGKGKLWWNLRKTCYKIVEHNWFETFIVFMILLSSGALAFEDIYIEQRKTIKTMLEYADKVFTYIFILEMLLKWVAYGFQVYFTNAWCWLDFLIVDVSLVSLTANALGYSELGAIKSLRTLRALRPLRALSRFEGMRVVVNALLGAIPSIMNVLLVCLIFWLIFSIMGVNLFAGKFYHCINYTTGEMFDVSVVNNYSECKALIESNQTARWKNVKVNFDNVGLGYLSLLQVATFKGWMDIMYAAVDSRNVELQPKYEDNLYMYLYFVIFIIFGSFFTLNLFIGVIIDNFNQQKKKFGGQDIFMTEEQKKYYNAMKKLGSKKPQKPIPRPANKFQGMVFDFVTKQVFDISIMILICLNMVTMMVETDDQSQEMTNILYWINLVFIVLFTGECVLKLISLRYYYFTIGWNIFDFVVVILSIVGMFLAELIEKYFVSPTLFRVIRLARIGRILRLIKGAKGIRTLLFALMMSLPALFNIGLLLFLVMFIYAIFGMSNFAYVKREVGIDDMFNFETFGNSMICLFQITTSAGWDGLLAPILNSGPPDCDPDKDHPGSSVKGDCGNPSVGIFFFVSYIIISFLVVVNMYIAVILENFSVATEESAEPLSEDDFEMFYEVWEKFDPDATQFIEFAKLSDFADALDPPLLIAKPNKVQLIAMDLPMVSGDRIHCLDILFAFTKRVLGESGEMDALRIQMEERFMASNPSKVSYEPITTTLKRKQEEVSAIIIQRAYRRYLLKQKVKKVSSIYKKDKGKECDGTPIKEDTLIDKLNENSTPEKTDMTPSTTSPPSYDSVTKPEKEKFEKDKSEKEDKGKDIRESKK
# T1 sequence (Q07699 19-218 partner): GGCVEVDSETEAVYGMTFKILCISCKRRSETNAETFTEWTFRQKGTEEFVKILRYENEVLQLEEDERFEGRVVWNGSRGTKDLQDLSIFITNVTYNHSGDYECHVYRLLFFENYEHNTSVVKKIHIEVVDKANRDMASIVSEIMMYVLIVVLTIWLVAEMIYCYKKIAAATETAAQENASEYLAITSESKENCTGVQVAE
# T1 sequence (O60939 30-215 partner): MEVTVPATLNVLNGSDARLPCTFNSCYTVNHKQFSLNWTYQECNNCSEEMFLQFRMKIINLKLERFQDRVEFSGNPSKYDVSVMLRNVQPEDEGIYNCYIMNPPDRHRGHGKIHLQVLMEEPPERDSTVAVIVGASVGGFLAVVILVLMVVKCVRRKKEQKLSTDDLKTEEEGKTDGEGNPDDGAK
smiles,measurement,setting,value
"Cc1cc(-c2cc(C)c3onc(OCc4ncccn4)c3c2)ccc1OC(F)(F)F [Example 18, 7-methyl-5-(3-methyl-4-(trifluoromethoxy)phenyl)-3-(pyrimidin-2-ylmethoxy)benzo[d]isoxazole]",inhibition at 10 µM,[1],< 5%
same,inhibition at 10 µM,[2],< 5%
"Cc1cc(-c2ccc(OC(F)(F)F)cc2)cc2c(OCCn3cncn3)noc12 [Example 89, 3-(2-(1H-1,2,4-triazol-1-yl)ethoxy)-7-methyl-5-(4-(trifluoromethoxy)phenyl)benzo[d]isoxazole]",inhibition at 10 µM,[1],16.1%
same,inhibition at 10 µM,[2],52%
"CC(Oc1noc2ccc(-c3ccc(OC(F)(F)F)cc3)cc12)c1ccccn1 (stereo not drawn) [Example 98, 3-(1-(pyridin-2-yl)ethoxy)-5-(4-(trifluoromethoxy)phenyl)benzo[d]isoxazole]",inhibition at 10 µM,[1],15.9%
same,inhibition at 10 µM,[2],< 5%
"Cc1cccc(COc2noc3ccc(-c4ccc(OC(F)(F)F)cc4)cc23)n1 [Example 95, 3-((6-methylpyridin-2-yl)methoxy)-5-(4-(trifluoromethoxy)phenyl)benzo[d]isoxazole]",inhibition at 10 µM,[1],< 5%
same,inhibition at 10 µM,[2],< 5%
"Cn1cncc1COc1noc2ccc(-c3ccc(OC(F)(F)F)cc3)cc12 [Example 50, 3-((1-methyl-1H-imidazol-5-yl)methoxy)-5-(4-(trifluoromethoxy)phenyl)benzo[d]isoxazole]",inhibition at 10 µM,[1],49.2%
same,inhibition at 10 µM,[2],27.3%
"COc1cc(-c2ccc(OC(F)(F)F)c(C)c2)cc2c(OCc3ncccn3)noc12 [Example 23, 7-methoxy-5-(3-methyl-4-(trifluoromethoxy)phenyl)-3-(pyrimidin-2-ylmethoxy)benzo[d]isoxazole]",inhibition at 10 µM,[1],< 5%
same,inhibition at 10 µM,[2],9.9%
"FC(F)(F)Oc1ccc(-c2ccc3onc(OCc4cn5ccccc5n4)c3c2)cc1 [Example 51, 3-(imidazo[1,2-a]pyridin-2-ylmethoxy)-5-(4-(trifluoromethoxy)phenyl)benzo[d]isoxazole]",inhibition at 10 µM,[1],30%
same,inhibition at 10 µM,[2],15.7%
"Fc1cc2onc(OCc3ncccn3)c2cc1-c1ccc2c(c1)OC(F)(F)O2 [Example 35, 5-(2,2-difluorobenzo[d][1,3]dioxol-5-yl)-6-fluoro-3-(pyrimidin-2-ylmethoxy)benzo[d]isoxazole]",inhibition at 10 µM,[1],< 5%
same,inhibition at 10 µM,[2],< 5%
"O=C1CCCN1CCOc1noc2c(F)cc(-c3ccc(OC(F)(F)F)cc3)cc12 [Example 80, 1-(2-((7-fluoro-5-(4-(trifluoromethoxy)phenyl)benzo[d]isoxazol-3-yl)oxy)ethyl)pyrrolidin-2-one]",inhibition at 10 µM,[1],19.8%
same,inhibition at 10 µM,[2],17.5%
"OCC1(COc2noc3ccc(-c4ccc(OC(F)(F)F)cc4)cc23)COC1 [Example 97, (3-(((5-(4-(trifluoromethoxy)phenyl)benzo[d]isoxazol-3-yl)oxy)methyl)oxetan-3-yl)methanol]",inhibition at 10 µM,[1],46.3%
same,inhibition at 10 µM,[2],34.3%
"COc1cc(-c2ccc(C(F)(F)F)cc2F)cc2c(OCc3ncccn3)noc12 [Example 24, 5-(2-fluoro-4-(trifluoromethyl)phenyl)-7-methoxy-3-(pyrimidin-2-ylmethoxy)benzo[d]isoxazole]",inhibition at 10 µM,[1],< 5%
same,inhibition at 10 µM,[2],< 5%
"Fc1cc(C(F)(F)F)ccc1-c1cc2c(OCc3ncccn3)noc2cc1F [Example 33, 6-fluoro-5-(2-fluoro-4-(trifluoromethyl)phenyl)-3-(pyrimidin-2-ylmethoxy)benzo[d]isoxazole]",inhibition at 10 µM,[1],< 5%
same,inhibition at 10 µM,[2],5.5%
"CC(C)n1ccnc1COc1noc2ccc(-c3ccc(OC(F)(F)F)cc3)cc12 [Example 48, 3-((1-isopropyl-1H-imidazol-2-yl)methoxy)-5-(4-(trifluoromethoxy)phenyl)benzo[d]isoxazole]",inhibition at 10 µM,[1],52.8%
same,inhibition at 10 µM,[2],54.2%
"CCn1cncc1COc1noc2ccc(-c3ccc(OC(F)(F)F)cc3)cc12 [Example 49, 3-((1-ethyl-1H-imidazol-5-yl)methoxy)-5-(4-(trifluoromethoxy)phenyl)benzo[d]isoxazole]",inhibition at 10 µM,[1],56.4%
same,inhibition at 10 µM,[2],49.9%
"FC(F)(F)Oc1ccc(-c2ccc3onc(OCc4nccn4-c4ccccc4)c3c2)cc1 [Example 64, 3-((1-phenyl-1H-imidazol-2-yl)methoxy)-5-(4-(trifluoromethoxy)phenyl)benzo[d]isoxazole]",inhibition at 10 µM,[1],33.2%
same,inhibition at 10 µM,[2],34.7%
"FC1(F)Oc2ccc(-c3ccc4onc(OCc5ncccn5)c4c3)cc2O1 [Example 30, 5-(2,2-difluorobenzo[d][1,3]dioxol-5-yl)-3-(pyrimidin-2-ylmethoxy)benzo[d]isoxazole]",inhibition at 10 µM,[1],< 5%
same,inhibition at 10 µM,[2],< 5%
"Fc1cc2onc(OCc3ncccn3)c2cc1-c1ccc(OC(F)(F)F)cc1 [Example 31, 6-fluoro-3-(pyrimidin-2-ylmethoxy)-5-(4-(trifluoromethoxy)phenyl)benzo[d]isoxazole]",inhibition at 10 µM,[1],< 5%
same,inhibition at 10 µM,[2],< 5%
"COc1ccnc(COc2noc3ccc(-c4ccc(OC(F)(F)F)cc4)cc23)c1 [Example 81, 3-((4-methoxypyridin-2-yl)methoxy)-5-(4-(trifluoromethoxy)phenyl)benzo[d]isoxazole]",inhibition at 10 µM,[1],< 5%
same,inhibition at 10 µM,[2],21.8%
"Cc1cccnc1COc1noc2ccc(-c3ccc(OC(F)(F)F)cc3)cc12 [Example 93, 3-((3-methylpyridin-2-yl)methoxy)-5-(4-(trifluoromethoxy)phenyl)benzo[d]isoxazole]",inhibition at 10 µM,[1],< 5%
same,inhibition at 10 µM,[2],< 5%
"Fc1cc(-c2ccc(OC(F)(F)F)cc2)cc2c(OCc3ncccn3)noc12 [Example 17, 7-fluoro-3-(pyrimidin-2-ylmethoxy)-5-(4-(trifluoromethoxy)phenyl)benzo[d]isoxazole]",inhibition at 10 µM,[1],5.9%
same,inhibition at 10 µM,[2],< 5%
"Cc1cc(-c2ccc(OC(F)(F)F)cc2)cc2c(OCc3ncco3)noc12 [Example 91, 7-methyl-3-(oxazol-2-ylmethoxy)-5-(4-(trifluoromethoxy)phenyl)benzo[d]isoxazole]",inhibition at 10 µM,[1],31.1%
same,inhibition at 10 µM,[2],46.9%
"Cc1nc(C)n(CCOc2noc3ccc(-c4ccc(OC(F)(F)F)cc4)cc23)n1 [Example 76, 3-(2-(3,5-dimethyl-1H-1,2,4-triazol-1-yl)ethoxy)-5-(4-(trifluoromethoxy)phenyl)benzo[d]isoxazole]",inhibition at 10 µM,[1],27.2%
same,inhibition at 10 µM,[2],27.9%
"Cc1cc(-c2cc3c(OCc4ncccn4)noc3cc2C)ccc1OC(F)(F)F [Example 27, 6-methyl-5-(3-methyl-4-(trifluoromethoxy)phenyl)-3-(pyrimidin-2-ylmethoxy)benzo[d]isoxazole]",inhibition at 10 µM,[1],< 5%
same,inhibition at 10 µM,[2],< 5%
"Cc1cc2onc(OCc3ncccn3)c2cc1-c1ccc(OC(F)(F)F)cc1 [Example 26, 6-methyl-3-(pyrimidin-2-ylmethoxy)-5-(4-(trifluoromethoxy)phenyl)benzo[d]isoxazole]",inhibition at 10 µM,[1],58.6%
same,inhibition at 10 µM,[2],< 5%
Cn1cc(COc2noc3ccc(-c4ccc(OC(F)(F)F)cc4)cc23)nn1 [Example 44],inhibition at 10 µM,[1],21.1%
same,inhibition at 10 µM,[2],25.4%
"FC(F)(F)Oc1ccc(-c2ccc3onc(OCCN4CCOCC4)c3c2)cc1 [Example 78, 3-(2-morpholinoethoxy)-5-(4-(trifluoromethoxy)phenyl)benzo[d]isoxazole]",inhibition at 10 µM,[1],39.9%
same,inhibition at 10 µM,[2],32.8%
"Cc1cc(OC(F)(F)F)ccc1-c1cc2c(OCc3ncccn3)noc2cc1C [Example 29, 6-methyl-5-(2-methyl-4-(trifluoromethoxy)phenyl)-3-(pyrimidin-2-ylmethoxy)benzo[d]isoxazole]",inhibition at 10 µM,[1],< 5%
same,inhibition at 10 µM,[2],< 5%
"FC(F)(F)COc1ccc(-c2ccc3onc(OCc4ncccn4)c3c2)cn1 [Example 21, 3-(pyrimidin-2-ylmethoxy)-5-(6-(2,2,2-trifluoroethoxy)pyridin-3-yl)benzo[d]isoxazole]",inhibition at 10 µM,[1],< 5%
same,inhibition at 10 µM,[2],< 5%
"CC(COc1noc2ccc(-c3ccc(OC(F)(F)F)cc3)cc12)n1cncn1 (stereo not drawn) [Example 77, 3-(2-(1H-1,2,4-triazol-1-yl)propoxy)-5-(4-(trifluoromethoxy)phenyl)benzo[d]isoxazole]",inhibition at 10 µM,[1],49.2%
same,inhibition at 10 µM,[2],31.8%
"COc1cc(-c2ccc(OC(F)(F)F)cc2C)cc2c(OCc3ncccn3)noc12 [Example 25, 7-methoxy-5-(2-methyl-4-(trifluoromethoxy)phenyl)-3-(pyrimidin-2-ylmethoxy)benzo[d]isoxazole]",inhibition at 10 µM,[1],< 5%
same,inhibition at 10 µM,[2],< 5%
"O=C1CC[C@H](COc2noc3ccc(-c4ccc(OC(F)(F)F)cc4)cc23)N1 [Example 61, (R)-5-(((5-(4-(trifluoromethoxy)phenyl)benzo[d]isoxazol-3-yl)oxy)methyl)pyrrolidin-2-one]",inhibition at 10 µM,[1],28.7%
same,inhibition at 10 µM,[2],31%
"FC(F)(F)Oc1ccc(-c2ccc3onc(OCc4cn[nH]c4)c3c2)cc1 [Example 45, 3-((1H-pyrazol-4-yl)methoxy)-5-(4-(trifluoromethoxy)phenyl)benzo[d]isoxazole]",inhibition at 10 µM,[1],63.8%
same,inhibition at 10 µM,[2],42.8%
"FC(F)(F)Oc1ccc(-c2ccc3onc(OCCn4cnnc4)c3c2)cc1 [Example 63, 3-(2-(4H-1,2,4-triazol-4-yl)ethoxy)-5-(4-(trifluoromethoxy)phenyl)benzo[d]isoxazole]",inhibition at 10 µM,[1],77.6%
same,inhibition at 10 µM,[2],68%
